Values of other authors in patent publication US11065213B2, “Amantadine compositions and preparations thereof” (Adamas Pharma, LLC, priority 2017, dated 2021).
Like-named read-outs stand apart in the source and are kept apart here.

Tested on: LID in PD patients
Settings: IR formulation

NC12CC3CC(CC(C3)C1)C2 [amantadine]
reduction in LID (200 mg/day): approximately 25% | reduction of LID (300 mg/day): ~40% | reduction of LID (300 to 400 mg/day): ~60%
